Results as given in the NIST ThermoML archive (doi:10.1021/je060469v).
± gives the expanded uncertainty stated by the source.

Tests used:
[1] = refractive index (Na D-line) (dimensionless); settings: 298.15 K; 101.33 kPa; Liquid; Standard Abbe refractometry
[2] = Liquid; for mass density: 298.15 K, 101.33 kPa

| refractive index [1] | mass density [2] [kg/m3] | vapor or sublimation pressure ([2]; 372.31 K) [kPa] | vapor or sublimation pressure ([2]; 419.67 K) [kPa] | vapor or sublimation pressure ([2]; 396.65 K) [kPa] | SMILES | vapor or sublimation pressure ([2]; 367.78 K) [kPa] |
| --- | --- | --- | --- | --- | --- | --- |
| 1.3847 ± 0.0007 | 892.16 ± 0.34 | 93.32 ± 1.9 | – | – | CCCC(=O)OC [methyl butanoate] | – |
| 1.4048 ± 0.0007 | 879.47 ± 0.36 | – | 93.32 ± 2.4 | – | CCCCCC(=O)OC [methyl hexanoate] | – |
| 1.3971 ± 0.0007 | 884.8 ± 0.35 | – | – | 93.32 ± 2.4 | CCCCC(=O)OC [methyl pentanoate] | – |

| SMILES | refractive index [1] | mass density [2] [kg/m3] | vapor or sublimation pressure ([2]; 372.31 K) [kPa] | vapor or sublimation pressure ([2]; 419.67 K) [kPa] | vapor or sublimation pressure ([2]; 396.65 K) [kPa] | vapor or sublimation pressure ([2]; 367.78 K) [kPa] |
| --- | --- | --- | --- | --- | --- | --- |
| CCC#N [propanenitrile] | 1.36368 ± 0.00073 | 776.85 ± 0.51 | – | – | – | 93.32 ± 1.9 |
